{
  "source": "patent US20230057861A1",
  "about": "“USE OF CORYDALIS SAXICOLA BUNTING AND FORMULATION THEREOF IN PREPARATION OF DRUG FOR TREATING NON-ALCOHOLIC FATTY LIVER DISEASES” (NANJING ZHONGSHAN PHARMACEUTICAL CO., LTD., priority 2020, published 2023)",
  "tested_on": "HFD-fed mice",
  "experiment": "Liver histopathology, HE staining",
  "assay_type": "in vivo, C57BL/6J mice",
  "conditions": "metformin group (200 mg/kg), gavage 5 weeks, FIG. 5",
  "procedure": "1.4 Experimental method: After adaptive feeding for one week, 35 four-week-old male C57BL/6 mice were randomized into 2 initial groups, fed with a normal chow or a high-fat (60% fat) high-sugar (20% fructose) chow. […] During modeling, the mice were given ad libitum access to food and water at room temperature of 23-25° C. in an animal laboratory. The proper temperature and the 12-hour day-night cycle were maintained. From week 11, the mice in each group were dosed by gavage for 5 weeks, and its weight was measured once a week. 4.1.1 Experimental method: Fresh liver tissue was collected and fixed in 4% neutral formalin buffer for 24 h, and then dehydrated. The tissue blocks were trimmed, processed, and embedded in paraffin. The tissue in glass slides were cut to the thickness of 5 μm and treated with HE staining.",
  "data": [
    {"smiles": "CN(C)C(=N)N=C(N)N", "note": "[metformin]", "values": [
      {"measurement": "hepatocyte swelling, steatosis, sparse cytoplasm (HE staining)", "value": "significantly relieved"}
    ]}
  ]
}
